Measured values as given in paper PMC12059162 (Scientific Reports, 2025).

Legend:
PANC-1 cells = assay: CyQUANT LDH direct cytotoxicity assay; type: cell-based, human; conditions: PANC-1, 25 µM, 72 h
Description: To assess the direct cytotoxicity, the CyQUANT™ LDH Cytotoxicity Assay (Invitrogen Corporation, New York, NY, USA) was used, which is a colourimetric assay. It is based on the detection of lactate dehydrogenase (LDH) activity. When there is damage to the plasma membrane, LDH is released into the cell culture medium, where it can be detected. First, 5 × 10^3 cells/well/100 µL concentration of cells were seeded in a 96-well plate, and after 24 h of incubation, the cells were treated with the molecules at concentrations of 0.5, 10 and 25 µM. After 72 h of treatment, 50 µl of the media from each sample was pipetted to a new 96-well plate. Then, the necessary steps were carried out according to the manufacturer’s instructions. Absorbance was measured for each well using a plate reader (Multiskan MS, Labsystems, Helsinki, Finland) at 492 and 680 nm. The % cytotoxicity was then calculated according to the manufacturer’s instructions. Three parallel samples were analysed in each treatment group.

FADD = assay: Human Apoptosis Array in PANC-1 cells; conditions: PANC-1, 0.5 µM, 72 h
phospho-p53 (S392) = assay: Human Apoptosis Array in PANC-1 cells; conditions: PANC-1, 0.5 µM, 72 h
XIAP = assay: Human Apoptosis Array in PANC-1 cells; conditions: PANC-1, 0.5 µM, 72 h
NHDF cells = assay: alamarBlue cell viability, healthy cells; conditions: Homo sapiens, NHDF, 72 h, read-out: IC50 values (μM) 72 hours
cleaved caspase-3 = assay: Human Apoptosis Array in PANC-1 cells; conditions: PANC-1, 0.5 µM, 72 h
SMAC = assay: Human Apoptosis Array in PANC-1 cells; conditions: PANC-1, 0.5 µM, 72 h
survivin = assay: Human Apoptosis Array in PANC-1 cells; conditions: PANC-1, 0.5 µM, 72 h
caspase-3/7 = assay: CellEvent Caspase-3/7 activity imaging in PANC-1 cells; conditions: PANC-1, 0.5 µM, 72 h, normalised to DMSO control (n = 1)

Row | SMILES | cytotoxicity at 25 µM (PANC-1 cells; Homo sapiens, DMSO control 5.3%) [%] | Direct cytotoxicity, fold compared to the DMSO control (PANC-1 cells) [fold] | FADD protein level (FADD) | phospho-p53 (S392) protein level (phospho-p53 (S392)) | XIAP protein level (XIAP) | IC50 (NHDF cells) [µM] | cleaved caspase-3 protein level (cleaved caspase-3) | SMAC protein level (SMAC) | survivin protein level (survivin) | Number of caspase-3/7 active cells, increase (caspase-3/7) [fold]
1 | O=C1C2=C(CCN(Cc3ccccc3)C2)N2CCN=C2N1Cc1ccc(F)cc1 [TBP-134] | 6.9 | 1.3 | decrease | decrease | decrease | 1.55 | – | – | – | –
2 | O=C1C2=C(CCN(Cc3ccccc3)C2)N2CCN=C2N1Cc1cccc(F)c1 [TBP-135] | – | – | – | – | – | – | significantly increased | significantly increased | did not exert detectable change | 7.8
